The values below come from US8759363B2, “Quinazoline-based T cell proliferation inhibitors” (Yissum Research Development Company of the Hebrew …, priority 2010, dated 2014).

Values joined by “and” are separate entries in the source; they are usually repeats but may differ in a detail not shown here. Equal entries are not always repeated. Where two headings read alike, the source gives them in different places.

For data set [1], the system named is CD8+ (2C) and CD4+ (TEA) T cells. Nature of the data set: MLR, double-positive CD8+1B2+ (2C) or CD4+/Va2+ (TEA) effector cells by FACS. The format is cell-based, mouse. To be noted: 72 h MLR. From the text: Mice used included male and female 6- to 12-week-old CB6/F1 mice, obtained from the Roscoe B. Jackson Memorial Laboratory (The Jackson Laboratory, Bar Harbor, Me., http://www.jax.org). A breeding pair of transgenic (Tg) H-2b mice expressing the T-cell antigen receptor (TCR) 1B2 from the CD8+ clone 2C with specificity for H-2Ld was kindly provided by Janko Nikolic-Zugic (Memorial Sloan-Kettering Cancer Center, New York, http://www.mskcc.org). A breeding pair of Tg H-2b mice expressing the TCR from the CD4+ clone known as TEA with specificity for I-Ead allopeptide, cross-presented by host APC and bound to I-Ab and was kindly provided by Alexander Y. Rudensky (University of Washington, Seattle). I-Ead allopeptide corresponds to the positions 52 to 68 from the alpha-chain of I-E class II molecules and is expressed in all APCs from H-2b/I-E+ strains (CB6F1-hybrid of C57BL/6 and Balb/c). C57BL/6 mice are H-2b but I-E−, whereas BALB/c are H-2d and I-E+, and therefore their F1 hybrids are H-2b/1-E+ and able to directly present antigen.
Responder 2C splenocytes were harvested, and the cell suspensions were treated with Tris-buffered ammonium chloride to remove RBC. […] On day 3, the MLR cultures were harvested, and analyzed by FACS for CD4 or CD8 levels.
FACS analysis was performed using a modified FACScan (BD Biosciences, Mountain View, Calif.). Fluorescence data were collected during one minute. […]
Background: A flow cytometer gives signals particle by particle.

A further data set deals with MDA-MB-231. The experiment in a line: MDA-MB-231 proliferation, BrdU uptake. The format is cell-based. To be noted: Homo sapiens. The method, then:
Cells were depleted of fetal calf serum (FCS) for 12 hours. They were then stimulated to proliferate by addition of ConA (10 μg/ml) for PBMC from healthy individuals and for Jurkat cells, FCS (10%) for HEK293 and A375 cells, PDGF (30 ng/ml) for NIH 3T3 cells, and EGF (30 ng/ml) for MDA-MB-231, Cells (1×10^5) were cultured in 96-well plates for 3 days in the presence or absence of inhibitors at the concentrations specified in the text. Each condition was tested in duplicate wells.
Proliferation was assessed by BrdU incorporation using a colorimetric ELISA kit (Roche, Germany). Subsequent to labeling with 10 μM BrdU, DNA was denatured and the cells were incubated with anti-BrdU-POD, prior to the addition of colorimetric substrate (TMB). The reaction product was quantified by measuring absorbance at 450 nm in an ELISA plate reader (ELx800 BIO-TEK Instruments Inc.).
To characterize the mode of action of 2 (S101) in more detail, we first examined whether 2 inhibits non-hematopoietic cell lines. We studied the effect of 2 on the growth of four cell lines: NIH 3T3 (mouse embryonic fibroblasts), A-431 (human vulval carcinoma cells), MDA-MB-468 (human breast carcinoma cells), and PANC-1 (human pancreatic carcinoma cells) (FIGS. 1A-B). We also tested the inhibitors on human keratinocytes. […]

Data set [2] can be described thus: In vitro percutaneous absorption and penetration, porcine ear skin. The format is in vitro ADME. The procedure:
Fresh porcine ears were obtained from local slaughterhouse. Dorsal side skin was surgically removed from the ears. Hairs were trimmed off with an electric trimmer. Subcutaneous fat was carefully cleaned. […] They were stored at −20° C. until use.
Compound 2 was dispersed into Labrasol® (Gattefosse, France) The mixture was heated to 35° C. and stirred until solubilized. Final concentrations: 0.108% and 0.316%. The final products are clear and somewhat viscous solutions.
The skin samples were mounted on Zyleris' High-Throughput Screening (HTS) station. Each individual cell has a diffusion area of 0.503 cm^2 (8 mm in diameter). The receptor chamber was filled with 2.0 ml of 5% Oleth-20 in 1×PBS buffer, pH 7.4 (10 mM Phosphate, 138 mM NaCl and 2 mM KCl), which was continuously mixed at 200 r.p.m. The screening experiments were carried out at 32±0.1° C. Oleth-20 is a polyethylene glycol ether of Oleyl Alcohol [Poly(oxy-1,2-ethanediyl) 20 mol Ethylene Oxide average molar ratio] (Spectrum Chemical, California).
The samples were dosed at 5 mg for both formulations. Each formulation was run in three replicates. At the end of each time interval (2, 12, and 24 h), the skin surface was wiped with cotton ball. The standard tape-stripping method was used to remove the stratum corneum (SC) layer. Repeated tape-stripping was continued until SC layer was disappeared (15 strips). Compound 2 absorbed in epidermis/dermis layer was collected by solvent extraction with DMSO. After tape-stripping, the remaining skin samples were minced and vortexed with 1.5 ml DMSO. The supernatant was separated. The extraction step was repeated three times. The supernatants were combined and ready for analysis.
The analysis was carried out with a Shimadzu LC-10ADVP instrument with Varian Polaris 3 C18-A, 50×3.0 mm, column. Mobile Phase A: 0.1% formic acid in water. Mobile Phase B: 0.1% formic acid in methanol. Flow rate: 0.4 ml/min.
MS system is an AB Scienx API4000 operated at positive ionization mode. The calibration range is 2.50-25,000 ng/ml.
Quality control of the screening experiments was established by measuring mass balances of a couple of selected runs (spot-check). Measurement of mass balance is to determine total amount of 2 recovered after each experiment. After the selected experiments, total amount of 2 left on the skin surface, absorbed in stratum corneum, in epidermis/dermis layer, and collected in the receptor medium was extracted and determined by LC-MS/MS analysis. The total amount was then compared to the initial dosing amount to determine recovery percentage. Two of the 12 hr runs for the 0.316% formulation was selected for the spot-check. […] They are within acceptable range of 80-120%.

For the molecule `COc1cc(-c2nc(Nc3ccc(C)cc3)c3ccccc3n2)cc(OC)c1OC` [Compound 2, N-p-tolyl-2-(3,4,5-trimethoxyphenyl)quinazolin-4-amine], in data set [1], the “percentage of double-positive effector cells” value was “reduced in a dose dependent manner”. For the same molecule, the IC50 (commonly the midpoint of a concentration-inhibition curve) in the data set on MDA-MB-231 (MDA-MB-231, EGF (30 ng/ml) activated, read-out: IC50 of stimulated cells) was above 10 µM; with MDA-MB-231 (MDA-MB-231, non-stimulated, read-out: IC50 of non-stimulated cells), above 10 µM. Also, the “skin concentration relative to the IC50” value in data set [2] (after 24 h, 0.3% 2 in Labrasol) is reported as 1000 folds. In addition, the “final concentration in the skin (epidermis/dermis)” value in data set [2] (after 24 h, initial concentration 0.3% 2 in Labrasol, estimated) was “higher than 114 μM”. In addition, the “penetration of the epidermis/dermis layer” value in data set [2] (porcine ears skin, Labrasol formulation) was “able to penetrate”. The “recovery percentage (mass balance)” value in data set [2] (two 12 hr runs, 0.316% formulation) is 89% and 114%.
